Data taken from patent US4880812A, “Pyrimidine compounds” (Burroughs Wellcome Co., priority 1986, dated 1989).
In brackets after ≈: the same amount, converted by molar mass. Read-outs that look alike come from different tables or passages of the source.

Columns and labels:
D98 cells = assay: Cell Culture Cytotoxicity Test, D98 cells; type: cell-based; conditions: Homo sapiens; 50 % of control; 70-76 hours of incubation; read-out: Concentration giving 50 % of Control, D-98 Cells
Experimental: (§1) B. Cell Culture Cytotoxicity Test Data
(§2) The two routine indicator cell lines used are (1.) D98, a twice-cloned derivative of Detroit 98s from American Type Culture Collection (ATCC) strain CCL 18.1, from human sternal bone marrow and (2.) L, a cloned derivative from NCTC 929 (ATCC CCL1,) a C3 H/An from mouse connective tissue. Inoculation densities for L and D98 cells are 1.0 and 1.5×10^5 cells, per cm^2, respectively. Control cells are grown in Eagle's MEM (Earle's salts, 10% horse serum, 100 units/ml potassium penicillin G and 100 μg/ml streptomycin) and should show at least two doublings during the test period. Test plates are seeded with similar quantities of cells and are grown in the same medium with test compounds added. Total "cell counts" are made with an electronic cell counter after 70-76 hours of incubation with one medium change at 20-26 hours. Dose response curves are prepared by plotting percent of control vs. concentration of compound.
(§3) The compounds of the invention included in this test and the results are as follows.

L cells = assay: Cell Culture Cytotoxicity Test, L cells; type: cell-based; conditions: Mus musculus; 50 % of control; 70-76 hours of incubation; read-out: Concentration giving 50 % of Control, L-Cells
Experimental: as §1, §2, §3

mouse L cells [1] = test system: mouse L cells
[2] = test system: lymphocytic leukemia P388/0; assay: Lymphocytic Leukemia P388/0 Test (survival, mice); type: in vivo, CD2-F1 mice
Source text: A. Anti-neoplastic Activity Data for Lymohocytic Leukemia P388/0 Test
The tests employed for the evaluation of anti-neoplastic activity of the compounds of the present invention are essentially those used in the Tumor Panel of the Developmental Therapeutics Program, Division of Cancer Treatment, National Cancer Institute, A. Goldin, et al., Methods in Cancer Research, Vol. XVI, p. 165, Academic Press (1979). Some modifications, in dose level and schedule have been made to increase the testing efficiency.
CD2-F1 -mice, of the same sex, weighing within a 3 g range surrounding 20 g, are used for this test. Control and test animals are injected intraperitoneally with a suspension of […] viable P388/0 tumor cells on day 0. In each test, several dose levels which bracket the LD20 of the compound are evaluated; each dose level group contains six animals. The test compound is prepared either in physiologic saline containing 0.05% Tween 80 or distilled water containing 5% dextrose and is administered intraperitoneally on the indicated schedule relative to tumor implant. Doses are on a mg/kg basis according to individual animals' body weights. The day of death for each animal is recorded, the median identified for each group and the percent increase in life span (% ILS) is calculated from the ratio of survival time of treatment to control groups. The criterion for activity is % ILS greater than or equal to 20%.
The compound of the invention included in this test was the compound of Example 1, namely N-[4-[3-(2,4-diamino-1,6-dihydro-6-oxo-5-pyrimidinyl)propylamino]benzoyl]- L-glutamic acid and the results are as follows.

Spiroplasma citri = assay: Activity Against Spiroplasma citri, Sensitivity Test; type: cell-based; conditions: for MIC: Spiroplasma citri, 48 h, 32° C., no color change or two day delay in color change; for activity against the mycoplasma, Spiroplasma citri: in words
Experimental: D. Data for Activity Against Spiroplasma citri, Sensitivity Test
Frozen broth cultures are diluted to a predetermined titre of 100 color changing units for the test. Organisms are grown in Difco PPLO broth base with added serum, glucose, phenol red, ampicillin, thallium acetate and yeast extract. Incubation is at 32° C. Incubation with varying levels of the test compound in the above medium are performed in well plates and an amount of Spiroplasma citri cells is added that will produce a color change by a fixed time of growth. The lowest concentration of compound that fails to produce a color change or gives a two day delay in color change indicates minimum inhibitory concentration.
The compounds of the invention included in this test and the results are as follows: […]

Lactobacillus casei = assay: activity against Lactobacillus casei; type: cell-based; conditions: in words
Streptococcus faecium = assay: activity against Streptococcus faecium; type: cell-based; conditions: in words
yellow fever virus = conditions: in words
mouse L cells [3] = assay: Reversal of Cytotoxic Activity on mouse L cells
[4] = colour change on extended exposure to light; type: physicochemical; conditions: white powder

Compound: Nc1nc(N)c(CCNc2ccc(C(=O)N[C@@H](CCC(=O)O)C(=O)O)cc2)c(=O)[nH]1 [Example 4, N-[4-[2-(2,4-diamino-1,6-dihydro-6-oxo-5-pyrimidinyl)ethylamino]benzoyl]-L-glutamic acid]
- IC50 (D98 cells): 700 nM
- IC50 (L cells): 400 nM

Compound: Nc1nc2c(c(=O)[nH]1)N(C=O)C(CNc1ccc(C(=O)N[C@@H](CCC(=O)O)C(=O)O)cc1)CN2 (stereo partly shown) [calcium leucovorin]
- reversal of the cytotoxicity of the compound of Example 1 (mouse L cells [1]): able to reverse the cytotoxicity
- reversal of the cytotoxicity of the compound of Example 3 (mouse L cells [1]): able to reverse the cytotoxicity

Compound: O=c1[nH]cnc2nc[nH]c12 [hypoxanthine]
- reversal of the cytotoxicity of the compound of Example 1 (mouse L cells [1]): able to reverse the cytotoxicity
- reversal of the cytotoxicity of the compound of Example 3 (mouse L cells [1]): able to reverse the cytotoxicity

Compound: Nc1nc(N)c(CCCNc2ccc(C(=O)N[C@@H](CCC(=O)O)C(=O)O)cc2)c(=O)[nH]1 [Example 1, N-[4-[3-(2,4-diamino-1,6-dihydro-6-oxo-5-pyrimidinyl)propylamino]benzoyl]-L-glutamic acid]
- % Increased Life Span ([2]; 2.5 mg/kg i.p., twice a day, on days 1, 2 and 3): +20%
- % Increased Life Span ([2]; 5 mg/kg i.p., every 4 hours for 3 doses on days 1-4): +22%
- % Increased Life Span ([2]; 5 mg/kg i.p., every hour for 8 doses on days 1 and 3): +60%
- % Increased Life Span ([2]; 5 mg/kg i.p., twice a day, on days 1, 2, and 3): +35%
- % Increased Life Span ([2]; 7.5 mg/kg i.p., twice a day, on days 1, 2 and 3): +40%
- % Increased Life Span ([2]; 10 mg/kg i.p., every 4 hours for 3 doses on days 1-4): +80%
- % Increased Life Span ([2]; 20 mg/kg i.p., every hour for 8 doses on days 1 and 3): +60%
- % Increased Life Span ([2]; 182 mg/kg i.p., day 1, 5, 9): +20%
- IC50 (D98 cells): 110 nM
- IC50 (L cells): 88 nM
- MIC (Spiroplasma citri): 0.01 µM (≈ 0.00432 µg/mL)
- activity against the mycoplasma, Spiroplasma citri (Spiroplasma citri): activity
- activity against Lactobacillus casei (Lactobacillus casei): activity
- activity against Streptococcus faecium (Streptococcus faecium): activity
- activity against yellow fever virus (yellow fever virus): some activity
- activity at 0.2 µM (mouse L cells [3]; Mus musculus, read-out: % of Control, compound alone, 2 × 10^-7 M (experiment with Ca leucovorin)): 36%
- activity at 0.2 µM (mouse L cells [3]; Mus musculus, read-out: % of Control, compound alone, 2 × 10^-7 M (experiment with hypoxanthine)): 40%

Compound: CN(CCCc1c(N)nc(N)[nH]c1=O)c1ccc(C(=O)N[C@@H](CCC(=O)O)C(=O)O)cc1 [Example 2, N-[4-[3-(2,4-diamino-1,6-dihydro-6-dihydro-6-oxo-5-pyrimidinyl)-N-methylpropylamino]benzoyl]-L-glutamic acid]
- IC50 (D98 cells): 3000 nM
- IC50 (L cells): 400 nM
- MIC (Spiroplasma citri): 0.1 µM (≈ 0.0446 µg/mL)
- activity against the mycoplasma, Spiroplasma citri (Spiroplasma citri): activity

Compound: NC(=O)c1ncn([C@@H]2O[C@H](COP(=O)(O)O)[C@@H](O)[C@H]2O)c1N [AICAR, 5-aminoimidazole-4-carboxamide ribonucleotide, reference compound]
- reversal of the cytotoxicity of the compound of Example 3 (mouse L cells [3]; rescue agent against Example 3): able to reverse the cytotoxicity

Compound: CN(CCc1c(N)nc(N)[nH]c1=O)c1ccc(C(=O)N[C@@H](CCC(=O)O)C(=O)O)cc1 [Example 5, N-[4-[2-(2,4-diamino-1,6-dihydro-6-oxo-5-pyrimidinyl)ethyl-N-methylamino]benzoyl]-L-glutamic acid]
- IC50 (D98 cells): 7000 nM
- IC50 (L cells): 750 nM
- colour change upon extended exposure to light [4]: became tan upon extended exposure to light

Compound: Nc1nc(N)c(CCCN(C=O)c2ccc(C(=O)N[C@@H](CCC(=O)O)C(=O)O)cc2)c(=O)[nH]1 [Example 3, N-[4-[3-(2,4-Diamino-1,6-dihydro-6-oxo-5-pyrimidinyl)-N-formylpropylamino]benzoyl]-L-glutamic acid]
- IC50 (D98 cells): 210 nM
- IC50 (L cells): 18 nM
- MIC (Spiroplasma citri): 0.1 µM (≈ 0.046 µg/mL)
- activity against the mycoplasma, Spiroplasma citri (Spiroplasma citri): activity
- activity against yellow fever virus (yellow fever virus): some activity
- activity at 0.04 µM (mouse L cells [3]; Mus musculus, read-out: % of Control, compound alone, 4 × 10^-8 M): 37%
